In the test the target is T1, Bcl-XL (Homo sapiens, UniProt Q07817).
T1 construct: GST tagged Bcl-XL ΔC25 protein (0.6 nM Final concentration)
Nature of the test: Alphascreen competition assay, GST tagged Bcl-XL with biotinylated Bim BH3-26 peptide. Format: binding. Particulars: GST tagged Bcl-XL ΔC25 protein 0.6 nM, biotinylated Bim BH3-26 peptide 5.0 nM, read-out: IC50 against Bcl-XL. The text has this:
The following example describes the measurement of competition of compounds of the invention with Bim26-mer for a Bcl-2 homologue binding site.
Alphascreen (Amplified Luminescent Proximity Homogenous Assay) is a bead based technology which measures the interaction between molecules. The assay consists of two hydrogel coated beads which, when brought into close proximity by a binding interaction, results in the transfer of singlet oxygen from a donor bead to an acceptor bead.
Upon binding and excitation with laser light at 680 nm, a photosensitizer in the donor bead converts ambient oxygen to a more excited singlet state. This singlet oxygen then diffuses and reacts with a chemiluminescer in the acceptor bead. Fluorophores within the same bead are activated and result in the emission of light at 580-620 nm.
Screening of the compounds of the invention is performed using the Alphascreen GST (glutathione s-transferase) detection kit system. […] To this reaction mix, anti-GST coated acceptor beads and Streptavidin coated donor beads, both at 15 μg/ml Final concentration, are added and the assay mixture is incubated for 4 hours at room temperature before reading. […]
Assay buffer contains 50 mM Hepes pH 7.4, 10 mM DTT, 100 mM NaCl, 0.05% Tween and 0.1 mg/ml casein. […] Assays are performed in 384 well white Optiplates and is analyzed on the PerkinElmer Fusion alpha plate reader (Ex680, Em520-620 […]). […]
(In general: Bead proximity is the source of the signal in Alpha formats.)

Molecules are shown by their SMILES. pIC50: −log10 of the molar value.

T1 sequence (Q07817 1-208 limits assumed, species assumed): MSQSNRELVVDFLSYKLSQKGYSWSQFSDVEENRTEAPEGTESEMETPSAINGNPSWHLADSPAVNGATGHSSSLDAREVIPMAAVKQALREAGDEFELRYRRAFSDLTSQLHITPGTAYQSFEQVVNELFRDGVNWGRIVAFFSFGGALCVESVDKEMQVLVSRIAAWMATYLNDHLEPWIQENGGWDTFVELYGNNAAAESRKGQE

Consider `O=[N+]([O-])c1cc(S(=O)(=O)Nc2ncnc3cc(-c4ccc(F)cc4)ccc23)ccc1NCCSc1ccccc1` [compound c, N-(7-(4-fluorophenyl)quinazolin-4-yl)-3-nitro-4-(2-(phenylthio)ethylamino)benzenesulfonamide], for which the pIC50 was 5.52.

Usually pIC50 stands for the IC50 on a negative log10 scale, so that one unit is a factor of ten.

Source of the values: patent US20110098305A1, “ARYLSULFONAMIDE COMPOUNDS, COMPOSITIONS AND METHODS OF USE” (priority 2008, published 2011).
